Assay: mn = molality of the nth substance listed, in mol/kg
Details: 101 kPa, Liquid; for speed of sound: Frequency=3 MHz, Sing-around technique in a fixed-path interferometer; for mass density: Vibrating tube method

CC(=O)NCC(=O)O [N-acetylglycine] + O
Details	mass density, 288.15 K [kg/m3]	mass density, 293.15 K [kg/m3]	mass density, 298.15 K [kg/m3]	mass density, 303.15 K [kg/m3]	mass density, 308.15 K [kg/m3]	speed of sound, 288.15 K [m/s]	speed of sound, 293.15 K [m/s]	speed of sound, 298.15 K [m/s]	speed of sound, 303.15 K [m/s]	speed of sound, 308.15 K [m/s]
m1 = 0.0203	1000.3	999.25	997.843	996.325	994.871	1467.5	1483.6	1497.7	1510	1520.3
m1 = 0.06014	1001.63	1000.6	999.038	997.499	996.032	1469.4	1485.4	1499	1511.4	1521.5
m1 = 0.1002	1002.81	1001.87	1000.36	998.819	997.262	1471.4	1486.8	1500.5	1512.4	1522.6
m1 = 0.1403	1004	1003.13	1001.63	1000.17	998.641	1473.3	1488.9	1502.1	1514.2	1524
m1 = 0.1695	1004.75	1003.97	1002.73	1001.25	999.567	1474.8	1489.9	1503.3	1514.9	1524.9
m1 = 0.2002	1005.54	1004.9	1003.76	1002.59	1001.25	1475.9	1491.4	1504.2	1515.6	1525.8

Reference: the NIST ThermoML archive (doi:10.1016/j.tca.2014.05.014)
